{"source": "patent US20220105124A1", "about": "“METHODS FOR TARGETED TREATMENT AND PREDICTION OF PATIENT SURVIVAL IN CANCER” (University of Florida Research Foundation, Incorporated, priority 2019, published 2022)", "test_system": "GBM cells with high VDR expression", "assay": "Treating GBM cells with high VDR expression with vitamin D", "type": "cell-based", "settings": "GBM cells with high VDR expression treated with vitamin D", "from_the_text": "The influence of vitamin D is also examined for its role the link between VDR (vitamin D receptor) and GBM prognosis. Addition of vitamin D is used to determine if vitamin D will direct VDR to a beneficial pro-immune function of liganded VDR. Removal of vitamin D is used to determine if vitamin D deficiency leads to harmful pro-tumor unliganded VDR signal.", "data": [{"substance": "Vitamin D", "values": [{"measurement": "Sox2 expression", "value": "signal from VDR, leading to lower Sox2,"}, {"measurement": "VDR expression", "value": "unaffected."}, {"measurement": "abnormal signal from VDR", "value": "cells with vitamin D reduces this abnormal"}]}]}
